Legend:
Format in all cases: in vivo
oral cavity [1] = test: Flavor and sensory characteristics at use level of 25 ppm in water
oral cavity [2] = test: Sensory evaluation in cherry-flavored hard candy; conditions: 0.2 grams added to recipe yielding 200 grams of hard candy; versus control candy
Description: The following formulation was prepared: […]
The above formulation was added to a stainless steel pot. With constant mixing, the formulation temperature was raised to 295° F. The pot was then removed from the heat, and 0.3 grams of cherry flavor containing the ingredients in equal amounts benzaldehyde, tolyl aldehyde, ethyl acetate, maltol, Davana oil and methyl heptinyl carbonate and 1.2 grams of citric acid was added. The resulting liquid candy was then deposited into molds, and the molds containing the liquid candy were cooled to room temperature, yielding 200 grams of finished hard candy. […] A second candy sample was prepared using the above recipe modified by the addition of 0.2 grams of menthyl succinamide prepared according to the procedure of Example I (A).

oral cavity [3] = test: Sensory evaluation in fruity citrus chewing gum; conditions: 1 part by weight added to gum of 100 parts chicle, 4 parts flavor, 300 parts sucrose, 100 parts corn syrup; versus control gum
Description: 100 parts by weight of chicle were mixed with 4 parts by weight of a fruity citrus gum flavor which was a blend of lemon oil, ethyl butyrate, ethyl acetate, benzaldehyde, citral and alpha ionone in equal portions. To the resulting mixture, 300 parts by weight of sucrose and 100 parts by weight of corn syrup were added. Mixing was effected in a ribbon blender with jacketed sidewalls, manufactured by Baker Perkins Co. The resultant chewing gum blend was then manufactured into strips 1 inch in width and 0.1 inches in thickness. These strips were cut into lengths of 3 inches each. […] A second gum sample was prepared using the above recipe with the addition of 1 part by weight of menthyl N,N-dimethyl succinamide, prepared according to Example I(C).

Compound | Cooling Duration (oral cavity [1]) [min] | Onset Time (oral cavity [1]) [s] | cooling effect in hard candy (oral cavity [2]) | cooling effect in chewing gum (oral cavity [3])
CC(C)[C@@H]1CC[C@@H](C)C[C@H]1OC(=O)CCC(N)=O [Example I(A), Butanoic acid, 4-amino-4-oxo, (5-methyl-2-(1-methylethyl)cyclohexyl)ester, (1R-(1α,2β,5α))-] | 7.5 | 8 to 25 | moderately strong and substantive cooling effect | 
CCNC(=O)CCC(=O)O[C@@H]1C[C@H](C)CC[C@H]1C(C)C [I(D), Butanoic acid, 4-ethylamino-4-oxo, (5-methyl-2-(1-methylethyl)cyclohexyl)ester, (1R-(1α,2β,5α))-] | 7 | 35 |  | 
CC(C)[C@@H]1CC[C@@H](C)C[C@H]1OC(=O)CCC(=O)NCCO [Example I(E), Butanoic acid, 4-(2-hydroxyethyl)amino-4-oxo, (5-methyl-2-(1-methylethyl)cyclohexyl) ester, (1R-(1α,2β,5α))-] | 15 | 11 |  | 
CC(C)[C@@H]1CC[C@@H](C)C[C@H]1OC(=O)CCC(=O)N(C)C [Example I(C), Butanoic acid, 4-dimethylamino-4-oxo, (5-methyl-2-(1-methylethyl)cyclohexyl)ester, (1R-(1α,2β,5α))-] | 11.25 | 25 |  | pleasant and substantive cooling effect on the tongue and roof of the mouth
CC(C)[C@@H]1CC[C@@H](C)C[C@H]1OC(=O)CCCCC(=O)O [Example I(I), Hexanedioic acid, mono(5-methyl-2-(1-methylethyl)cyclohexyl) ester, (1R-(1α,2β,5α))-] | 10.5 | 34 |  | 
CNC(=O)CCC(=O)O[C@@H]1C[C@H](C)CC[C@H]1C(C)C [Example I(B), Butanoic acid, 4-methylamino-4-oxo, (5-methyl-2-(1-methylethyl)cyclohexyl)ester, (1R-(1α,2β,5α))] | 7 | 15 to 25 |  | 
Pentanoic acid, 4-methylamino-4-oxo, (5-methyl-2-(1-methylethyl)cyclohexyl) ester, (1R-(1α,2β,5α))- [Example I(G)] | 5 | 20 |  | 
